Assay results: patent US8431593B2, “Heteroaryl amide derivatives” (H. Lundbeck A/S, priority 2006, dated 2013)

biological target: T1, P2X7 receptor (Homo sapiens, UniProt Q99572); assay: P2X7 calcium mobilization assay, high throughput, antagonist activity (Example 4A); format: cell-based; conditions: 50% decrease in the fluorescence response of cells exposed to 80 μM of 2′(3′)-O-(4-benzoyl-benzoyl)adenosine 5′-triphosphate; determined as in Example 4A; read-out: IC50
T1 construct: host or cells: SH-SY5Y
T1 sequence (Q99572 1-595): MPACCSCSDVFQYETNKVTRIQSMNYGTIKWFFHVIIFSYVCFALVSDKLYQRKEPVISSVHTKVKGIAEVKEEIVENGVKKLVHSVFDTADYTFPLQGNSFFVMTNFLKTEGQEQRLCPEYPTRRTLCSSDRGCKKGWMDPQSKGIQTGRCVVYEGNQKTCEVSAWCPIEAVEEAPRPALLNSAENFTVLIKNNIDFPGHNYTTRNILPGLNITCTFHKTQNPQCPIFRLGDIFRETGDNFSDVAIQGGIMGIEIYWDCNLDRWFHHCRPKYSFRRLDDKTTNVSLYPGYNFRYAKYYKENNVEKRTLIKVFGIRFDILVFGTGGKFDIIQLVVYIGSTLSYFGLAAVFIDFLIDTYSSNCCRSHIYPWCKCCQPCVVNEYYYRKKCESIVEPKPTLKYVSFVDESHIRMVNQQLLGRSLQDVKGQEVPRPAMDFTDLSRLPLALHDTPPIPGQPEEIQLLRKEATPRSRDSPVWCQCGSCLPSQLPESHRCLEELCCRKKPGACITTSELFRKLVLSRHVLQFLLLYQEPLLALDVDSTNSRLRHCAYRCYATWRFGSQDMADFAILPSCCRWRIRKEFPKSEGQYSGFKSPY
How it was run: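 Cells plated 100,000/well the day before; after 1 h dye loading and one rinse, cells were preincubated 1 h at room temperature with test compound. Calcium mobilization then read on FLIPR^TETRA; maximum RFU corrected by subtracting mean no-agonist response and referenced to mean agonist-control maximum.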

IC50, < 2 µM:
O=C(O)Cc1cn2c(C(=O)NCC3(c4ccc(Cl)cc4)CCCCC3)cccc2n1 [Compound 949, [5-({[1-(4-chlorophenyl)cyclohexyl]methyl}carbamoyl)imidazo[1,2-a]pyridin-2-yl]acetic acid]
COc1ccc(C2(CNC(=O)c3cccc4nc(CC(=O)N[C@@H]5CCN(C(=O)OC(C)(C)C)C5)cn34)CCCCC2)cc1 [Compound 950, tert-butyl (3R)-3-({[5-({[1-(4-methoxyphenyl)cyclohexyl]methyl}carbamoyl)imidazo [1,2-a]pyridin-2-yl]acetyl}amino) pyrrolidine-1-carboxylate]
CCCC(CNC(=O)c1cccc2nc(CC(=O)N[C@@H]3CCNC3)cn12)c1ccc(Cl)cc1 (stereo partly drawn) [Compound 951, N-[2-(4-chlorophenyl)pentyl]-2-{2-oxo-2-[(3R)-pyrrolidin-3-ylamino]ethyl} imidazo[1,2-a] pyridine-5-carboxamide]
COc1ccc(C2(CNC(=O)c3cccc4nc(CC(=O)N[C@@H]5CCNC5)cn34)CCCCC2)cc1 [Compound 952, N-{[1-(4-methoxyphenyl)cyclohexyl]methyl}-2-{2-oxo-2-[(3R)-pyrrolidin-3-ylamino]ethyl}imidazo[1,2-a]pyridine-5-carboxamide]
O=C(NCC12CC3CC(CC(C3)C1)C2)c1cccc2nc([C@H]3CC[C@@H](C(=O)O)CC3)cn12 [Compound 954, cis-4-{5-[(adamantan-1-ylmethyl)carbamoyl]imidazo[1,2-a]pyridin-2-yl} cyclohexane-carboxylic acid]
NC(=O)c1cccc(NC(=O)Cc2cn3c(C(=O)NCC4CCCCCC4)cccc3n2)c1 [Compound 955, 2-{2-[(3-carbamoylphenyl)amino]-2-oxoethyl}-N-(cycloheptylmethyl) imidazo[1,2-a] pyridine-5-carboxamide]
CNC(=O)c1ccc(NC(=O)Cc2cn3c(C(=O)NCC4CCCCCC4)cccc3n2)cc1 [Compound 957, N-(cycloheptylmethyl)-2-(2-{[4-(methylcarbamoyl)phenyl]amino}-2-oxoethyl) imidazo[1,2-a] pyridine-5-carboxamide]
NC(=O)COc1cccc(NC(=O)Cc2cn3c(C(=O)NCC4CCCCCC4)cccc3n2)c1 [Compound 958, 2-(2-{[3-(2-amino-2-oxoethoxy)phenyl]amino}-2-oxoethyl)-N-(cycloheptylmethyl) imidazo[1,2-a] pyridine-5-carboxamide]
CC(C)CC(CNC(=O)c1cccc2nc(CC(=O)N[C@@H]3CCNC3)cn12)c1ccc(Cl)cc1 (stereo partly drawn) [Compound 960, N-[2-(4-chlorophenyl)-4-methylpentyl]-2-{2-oxo-2-[(3R)-pyrrolidin-3-ylamino]ethyl} imidazo[1,2-a] pyridine-5-carboxamide]
O=C(Cc1cn2c(C(=O)NCC3(c4ccc(Cl)cc4)CCCCC3)cccc2n1)N[C@@H]1CCNC1 [Compound 961, N-{[1-(4-chlorophenyl)cyclohexyl]methyl}-2-{2-oxo-2-[(3R)-pyrrolidin-3-ylamino]ethyl} imidazo [1,2-a]pyridine-5-carboxamide]
O=C(O)Cc1cn2c(C(=O)NCC3(c4ccc(C(F)(F)F)cc4)CCCCC3)cccc2n1 [Compound 963, {5-[({1-[4-(trifluoromethyl)phenyl]cyclohexyl}methyl)carbamoyl]imidazo[1,2-a]pyridin-2-yl}acetic acid]
CC(C)CC(CNC(=O)c1cccc2nc(CC(=O)O)cn12)c1ccc(Cl)cc1 (stereo not shown) [Compound 964, (5-{[2-(4-chlorophenyl)-4-methylpentyl]carbamoyl}imidazo[1,2-a]pyridin-2-yl) acetic acid]
CC(C)CC(CNC(=O)c1cccc2nc(CC(=O)O)cn12)c1ccc(C(F)(F)F)cc1 (stereo not shown) [Compound 965, [5-({4-methyl-2-[4-(trifluoromethyl)phenyl]pentyl}carbamoyl)imidazo[1,2-a]pyridin-2-yl] acetic acid]
CCCCCCCC(CNC(=O)c1cccc2nc(CC(=O)O)cn12)c1ccccc1 (stereo not shown) [Compound 966, {5-[(2-phenylnonyl)carbamoyl]imidazo[1,2-a]pyridin-2-yl} acetic acid]
CC(C)CC(CNC(=O)c1cccc2nc(CC(=O)N[C@@H]3CCN(C(=O)OC(C)(C)C)C3)cn12)c1ccc(Cl)cc1 (stereo partly shown) [Compound 967, tert-butyl 3-{[(5-{[2-(4-chlorophenyl)-4-methylpentyl]carbamoyl}imidazo[1,2-a]pyridin-2-yl)acetyl]amino} pyrrolidine-1-carboxylate]
CC(C)(C)OC(=O)N1CC[C@@H](NC(=O)Cc2cn3c(C(=O)NCC4(c5ccc(Cl)cc5)CCCCC4)cccc3n2)C1 [Compound 968, tert-butyl (3R)-3-({[5-({[1-(4-chlorophenyl)cyclohexyl]methyl}carbamoyl)imidazo[1,2-a]pyridin-2-yl]acetyl}amino) pyrrolidine-1-carboxylate]
CC(C)CC(CNC(=O)c1cccc2nc(C3CCC(C(=O)O)CC3)cn12)c1ccc(Cl)cc1 (stereo not shown) [Compound 969, 4-(5-{[2-(4-chlorophenyl)-4-methylpentyl]carbamoyl}imidazo[1,2-a]pyridin-2-yl)cyclohexane-carboxylic acid]
O=C(Cc1cn2c(C(=O)NCCc3ccccc3)cccc2n1)NCC12CC3CC(CC(C3)C1)C2 [Compound 972, 2-{2-[(adamantan-1-ylmethyl)amino]-2-oxoethyl}-N-(2-phenylethyl)imidazo[1,2-a]pyridine-5-carboxamide]
O=C(Cc1cn2c(C(=O)NC3CCCCC3)cccc2n1)NCC12CC3CC(CC(C3)C1)C2 [Compound 973, 2-{2-[(adamantan-1-ylmethyl)amino]-2-oxoethyl}-N-cyclohexylimidazo[1,2-a]pyridine-5-carboxamide]
CC(C)CC(CNC(=O)Cc1cn2c(C(=O)NC3CCCCC3)cccc2n1)c1ccc(Cl)cc1 (stereo not shown) [Compound 975, 2-(2-{[2-(4-chlorophenyl)-4-methylpentyl]amino}-2-oxoethyl)-N-cyclohexylimidazo [1,2-a]pyridine-5-carboxamide]
O=C(Cc1cn2c(C(=O)NCC3CCCCC3)cccc2n1)NCC1(c2ccc(Cl)cc2)CCCCC1 [Compound 978, 2-[2-({[1-(4-chlorophenyl)cyclohexyl]methyl}amino)-2-oxoethyl]-N-(cyclohexylmethyl) imidazo[1,2-a] pyridine-5-carboxamide]
O=C(Cc1cn2c(C(=O)NCCc3ccccc3)cccc2n1)NCC1(c2ccc(Cl)cc2)CCCCC1 [Compound 979, 2-[2-({[1-(4-chlorophenyl)cyclohexyl]methyl}amino)-2-oxoethyl]-N-(2-phenylethyl) imidazo[1,2-a]pyridine-5-carboxamide]
O=C(Cc1cn2c(C(=O)NC3CCCCC3)cccc2n1)NCC1(c2ccc(Cl)cc2)CCCCC1 [Compound 980, 2-[2-({[1-(4-chlorophenyl)cyclohexyl]methyl}amino)-2-oxoethyl]-N-cyclohexyl-imidazo[1,2-a]pyridine-5-carboxamide]
CC(C)CC(CNC(=O)c1cccc2nc(CCC(=O)O)cn12)c1ccc(C(F)(F)F)cc1 (stereo not shown) [Compound 986, 3-[5-({4-methyl-2-[4-(trifluoromethyl)phenyl]pentyl}carbamoyl)imidazo[1,2-a]pyridin-2-yl] propanoic acid]
O=C(Cc1cn2c(C(=O)NCC3(N4CCOCC4)CCCCC3)cccc2n1)NC1(CO)CCCC1 [Compound 988, 2-(2-{[1-(hydroxymethyl)cyclopentyl]amino}-2-oxoethyl)-N-[(1-morpholin-4-ylcyclohexyl)methyl] imidazo[1,2-a] pyridine-5-carboxamide]
O=C(O)CC(Cc1ccccc1)c1cn2c(C(=O)NCC34CC5CC(CC(C5)C3)C4)cccc2n1 (stereo not shown) [Compound 994, 3-{5-[(adamantan-1-ylmethyl)carbamoyl]imidazo[1,2-a]pyridin-2-yl}-4-phenylbutanoic acid]
COc1ccc(C2(CNC(=O)c3cccc4nc(CCC(=O)O)cn34)CCCCC2)cc1 [Compound 998, 3-[5-({[1-(4-methoxyphenyl)cyclohexyl]methyl}carbamoyl)imidazo[1,2-a]pyridin-2-yl]propanoic acid]
CC(C)(C)[Si](C)(C)OCCCn1ccc(NCc2cn3c(C(=O)NCC45CC6CC(CC(C6)C4)C5)cccc3n2)n1 [Compound 999, N-(adamantan-1-ylmethyl)-2-({[1-(3-{[tert-butyl (dimethyl)silyl]oxy}propyl)-1H-pyrazol-3-yl]amino}methyl) imidazo[1,2-a] pyridine-5-carboxamide]
